The values below come from patent US9182402B2, “Hepsin inhibitors” (Fred Hutchinson Cancer Research Center, priority 2008, dated 2015).

Like-named read-outs stand apart in the source and are kept apart here.

One data set concerns the target recombinant human hepsin (Homo sapiens, UniProt P05981). In words: Hepsin activity assay (chromogenic substrate pyroGlu-Pro-Arg-pNA). The format is biochemical. The method, then:
D. Hepsin, Trypsin and Thrombin Activity Assays.
Purified recombinant hepsin was preincubated with indicated compounds for 30 minutes at room temperature.

The next data set concerns the target thrombin (Bos taurus (Bovine), UniProt P00735). In words: Thrombin activity assay (chromogenic substrate). The following applies: for IC50: 30 minutes preincubation at room temperature, substrate at Km. The format is biochemical.
The target of a further data set is trypsin (Sus scrofa (Pig), UniProt P00761). The experiment in a line: Trypsin activity assay (chromogenic substrate). Conditions: read-out: IC50 trypsin; 30 minutes preincubation at room temperature, substrate at Km.
The next data set relates to LNCaP cells. The experiment in a line: Cell cytotoxicity assay (CellTiter-Glo, ATP-luciferase). The following applies: 20 μM, 72 hours, compounds replenished daily. For orientation: In ATP-based viability assays light output follows the ATP content of the culture.
Data set [1] concerns MP-1 mouse prostate epithelial cell line. Described as above. The following applies: MP-1, 20 μM, 72 hours, compounds replenished daily.
A further data set relates to HepG2 cells. The data set is described as above. The following applies: HepG2, 20 μM, 72 hours, compounds replenished daily.
The target in data set [2] is full-length wild-type murine hepsin expressed in HEK 293FT cells (Mus musculus (Mouse), UniProt O35453). In words: Hepsin-dependent pericellular serine proteolytic activity assay. The format is cell-based. Conditions: for attenuation of hepsin-dependent pericellular proteolytic activity: 50 μM, activity/expression level relative to vehicle; for attenuation of hepsin-dependent pericellular proteolytic activity / pericellular proteolytic activity (in words): overnight incubation; for pericellular proteolytic activity (in words): 20 and 50 μM. The method, then:
Loading was verified via immunoblot against β-actin.
G. Pericellular Serine Proteolytic Activity Assay. […] After 3.5 hrs, transfection media was replaced with fresh media containing 20 μM or 50 μM of test compounds or solvent control (0.5% DMSO in media) and cells incubated overnight. Attached cell monolayers were then washed twice with PBS and once with assay buffer (5% CO2 equilibrated phenol-red free DMEM with 1% BSA) to remove residual serum proteases/inhibitors. Cells were then incubated in assay buffer containing 20 or 50 μM compounds for 30 minutes at 37° C. […] Percent inhibition was calculated as residual activity relative to solvent control. Matched samples were used in parallel to determine toxicity of the test compounds to HEK 293FT cells in this system using the CellTiter-Glo™ assay.
D. Inhibition of Hepsin-Dependent Pericellular Proteolytic Activity. To determine whether the identified compounds were able to inhibit cell-based hepsin activity, an assay was devised to measure hepsin-dependent pericellular serine proteolytic activity (FIG. 5A) (Raynaud et al., 1992 J Cell Physiol 151:378; Bauvois et al., 1990 Eur. J. Immunol. 20:459; Bauvois et al., 1992 Eur. J. Immunol. 22:923; Sameni et al., 2000 Neoplasia 2:496; McGowen et al., 2000 Canc. Res. 60:4771). […] Attached cell monolayers were incubated in assay buffer with peptide substrate and the reactions were allowed to proceed at 37° C. […] Activity levels were adjusted by altering hepsin expression levels to within the linear range of detection. A positive linear rate of activity was observed only for wild-type hepsin-expressing cells and was abolished in the presence of the broad spectrum serine protease inhibitor PEFAbloc.

A further data set concerns the target hepsin (Mus musculus (Mouse), UniProt O35453). In words: Immunoblot of hepsin expression levels in compound treated HEK 293FT cells. The following applies: 20 and 50 μM, 24 hours. In general terms: In western blotting, separated proteins are transferred to a membrane and probed.
[3] abbreviates: 30 minutes preincubation at room temperature, substrate at Km.

trypsin, sequence (P00761 9-231): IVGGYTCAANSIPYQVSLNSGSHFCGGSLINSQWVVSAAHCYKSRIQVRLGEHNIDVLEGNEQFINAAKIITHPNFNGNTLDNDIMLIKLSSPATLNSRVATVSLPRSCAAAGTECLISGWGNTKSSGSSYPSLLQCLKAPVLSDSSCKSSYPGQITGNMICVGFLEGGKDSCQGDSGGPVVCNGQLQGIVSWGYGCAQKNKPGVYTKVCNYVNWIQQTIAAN
full-length wild-type murine hepsin expressed in HEK 293FT cells, sequence (O35453 other isoform, or with tags, fused parts or gaps): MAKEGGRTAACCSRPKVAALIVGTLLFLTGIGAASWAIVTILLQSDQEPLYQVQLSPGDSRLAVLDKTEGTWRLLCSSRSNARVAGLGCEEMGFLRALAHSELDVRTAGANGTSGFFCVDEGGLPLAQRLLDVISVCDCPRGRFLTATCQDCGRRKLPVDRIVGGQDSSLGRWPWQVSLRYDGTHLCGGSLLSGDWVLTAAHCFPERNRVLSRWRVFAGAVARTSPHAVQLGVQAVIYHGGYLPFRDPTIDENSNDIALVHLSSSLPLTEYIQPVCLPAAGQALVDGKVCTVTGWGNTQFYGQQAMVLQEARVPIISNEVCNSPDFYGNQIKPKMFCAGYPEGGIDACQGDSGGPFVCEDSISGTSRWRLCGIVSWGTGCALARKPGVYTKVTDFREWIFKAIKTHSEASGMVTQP
recombinant human hepsin, sequence (P05981 1-162 limits assumed): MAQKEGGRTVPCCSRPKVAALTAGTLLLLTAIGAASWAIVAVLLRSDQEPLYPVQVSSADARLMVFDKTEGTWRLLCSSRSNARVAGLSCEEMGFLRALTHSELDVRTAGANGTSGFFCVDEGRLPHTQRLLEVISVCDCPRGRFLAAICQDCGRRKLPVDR
recombinant human hepsin, sequence (P05981 163-417 limits assumed): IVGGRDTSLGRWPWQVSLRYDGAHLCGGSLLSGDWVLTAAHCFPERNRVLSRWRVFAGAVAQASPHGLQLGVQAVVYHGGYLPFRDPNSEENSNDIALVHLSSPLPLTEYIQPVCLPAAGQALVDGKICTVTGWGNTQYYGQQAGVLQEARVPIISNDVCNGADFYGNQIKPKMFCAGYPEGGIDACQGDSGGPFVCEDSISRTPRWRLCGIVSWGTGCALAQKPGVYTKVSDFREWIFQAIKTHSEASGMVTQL
Protocol for thrombin: (§1) Titration of the chromogenic substrate pryoGlu-Pro-Arg-pNA was performed for each enzyme and the resulting substrate-velocity data fit with nonlinear regression using GraphPad Prism 4 software (GraphPad, La Jolla, Calif.) to calculate Vmax and Km. […] The reactions were then followed using a kinetic microplate reader and the linear rates of increase in absorbance at 405 nm expressed as percent activity (100%×vi/vo). At least three independent experiments were performed for each enzyme. The IC50 was calculated by fitting the data to a four-parameter non-linear regression using GraphPad Prism 4.
Protocol for trypsin: as §1

By IC50 is commonly meant the point on the concentration scale where inhibition reaches its midpoint. For `Cc1ccc(OCc2nnc(NC(=O)Nc3cccc(Cl)c3)s2)cc1C` [Compound 2, N-(3-chlorophenyl)-N′-{5-[(3,4-dimethylphenoxy)methyl]-1,3,4-thiadiazol-2-yl}urea], the IC50 was 760 ± 260 nM on recombinant human hepsin (setting [3]), above 20 µM against thrombin and above 20 µM at trypsin. In addition, the “cellular toxicity (cell viability)” value in the data set with LNCaP cells is “substantial toxicity”; in data set [1] it was “without affecting”; with HepG2 cells, “without affecting”.

On to `O=[N+]([O-])c1cccc(C2Nc3ccc(Cl)cc3C3C=CCC32)c1` (stereo not drawn) [Compound 6, 8-chloro-4-(3-nitrophenyl)-3a,4,5,9b-tetrahydro-3H-cyclopenta[c]quinoline], for which the IC50 at recombinant human hepsin (setting [3]) was 980 ± 200 nM; at thrombin it was above 20 µM; on trypsin, 10.2 ± 1.5 µM. The “cellular toxicity (cell viability)” value (in the data set with LNCaP cells; in data set [1]; in the data set with HepG2 cells) was “limited or no cytotoxicity” throughout.

For the molecule `Cc1cccc(C2Nc3cccc4cccc(c34)N2)c1` [Compound 4, 2-(3-methylphenyl)-2,3-dihydro-1H-perimidine], the IC50 at recombinant human hepsin (setting [3]) is 350 ± 120 nM; against thrombin it was above 20 µM; at trypsin, 19.6 ± 2.7 µM. In addition, the “attenuation of hepsin-dependent pericellular proteolytic activity” value (“attenuation” below) in data set [2] was “approximately 60%”. In addition, the “pericellular proteolytic activity (in words)” value in data set [2] is listed as “attenuated pericellular proteolytic activity in a dose dependent manner”. In addition, the “cellular toxicity (cell viability)” value (with LNCaP cells; in data set [1]; in the data set with HepG2 cells) was “limited or no cytotoxicity” throughout. In addition, the hepsin expression levels entry at hepsin is given as “without substantially affecting hepsin expression levels”.

Take `O=C1NC(=O)N(c2cccc(Br)c2)C(=O)/C1=C/c1c[nH]c2ccccc12` [Compound 3]: the IC50 at recombinant human hepsin (setting [3]) was 1930 ± 390 nM; on thrombin it was above 20 µM; at trypsin, 7.63 ± 1.51 µM. In addition, in data set [2], the “attenuation” value is given as “approximately 50%”. In data set [2], the “pericellular proteolytic activity (in words)” value is “attenuated pericellular proteolytic activity in a dose dependent manner”. Moreover, the “cellular toxicity (cell viability)” value (in the data set on LNCaP cells; in data set [1]; in the data set on HepG2 cells) was “limited or no cytotoxicity” throughout. Further, the hepsin expression levels result on hepsin is “without substantially affecting hepsin expression levels”.

`Oc1nc2cc(Cl)c(Cl)cc2nc1O` [Compound 16, 2,3-dihydroxy-6,7-dichloroquinoxaline]: the IC50 was 750 ± 90 nM on recombinant human hepsin (setting [3]), above 20 µM at thrombin and 2.42 ± 0.29 µM at trypsin. The “cellular toxicity (cell viability)” value (with LNCaP cells; in data set [1]; in the data set with HepG2 cells) was “limited or no cytotoxicity” throughout.

In the case of `Cc1csc(-c2cc3ccc(OCc4c(F)c(F)c(F)c(F)c4F)cc3oc2=O)n1` [Compound 9, 3-(4-methyl-1,3-thiazol-2-yl)-7-[(pentafluorobenzyl)oxy]-2H-chromen-2-one], the figures for the IC50 on recombinant human hepsin (setting [3]), against thrombin and at trypsin were 980 ± 120 nM, above 20 µM and 20.9 ± 7.5 µM, respectively. The “cellular toxicity (cell viability)” value (in the data set with LNCaP cells; in data set [1]; in the data set with HepG2 cells) was “limited or no cytotoxicity” throughout.

In the case of `COc1cccc(OCCOc2cccc(/C=c3\sc4nc5ccccc5n4c3=O)c2)c1` [Compound 11, 2-{3-[2-(3-methoxyphenoxy)ethoxy]benzylidene}[1,3]thiazolo[3,2-a]benzimidazol-3(2H)-one], the results for the IC50 at recombinant human hepsin and at trypsin were 1310 ± 440 nM and 2 ± 0.33 µM, respectively. Further, the “cellular toxicity (cell viability)” value (in the data set with LNCaP cells; in data set [1]; in the data set on HepG2 cells) was “limited or no cytotoxicity” in each case.

Take `O=[N+]([O-])c1ccc(C2Nc3c(cccc3C(F)(F)F)C3C=CCC32)cc1` (stereo not drawn) [Compound 5, 4-(4-nitrophenyl)-6-(trifluoromethyl)-3a,4,5,9b-tetrahydro-3H-cyclopenta[c]quinoline]: the IC50 was 570 ± 190 nM at recombinant human hepsin (setting [3]), above 20 µM against thrombin and 31.2 ± 2 µM on trypsin. Also, the “attenuation” value in data set [2] is “approximately 60%”. The “pericellular proteolytic activity (in words)” value in data set [2] was “attenuated pericellular proteolytic activity in a dose dependent manner”. Besides, the “cellular toxicity (cell viability)” value (in the data set on LNCaP cells; in data set [1]; in the data set on HepG2 cells) was “limited or no cytotoxicity” throughout. The hepsin expression levels entry on hepsin is “without substantially affecting hepsin expression levels”.

Consider `Cl.NCCc1ccc(S(=O)(=O)F)cc1` [PEFAbloc, reference compound], for which the “pericellular proteolytic activity in the presence of inhibitor” value in data set [2] (wild-type hepsin-expressing cells, 30 minutes incubation) is “abolished”.

As to `CC1(C)CC(=O)c2c(oc3c(Br)cc(NS(=O)(=O)c4ccccc4)cc23)C1` [Compound 10, N-(4-bromo-7,7-dimethyl-9-oxo-6,7,8,9-tetrahydrodibenzo[b,d]furan-2-yl)benzenesulfonamide], the results for the IC50 at recombinant human hepsin (setting [3]), against thrombin and at trypsin were 930 ± 130 nM, above 20 µM and 7.72 ± 1.1 µM, respectively. The “cellular toxicity (cell viability)” value (in the data set on LNCaP cells; in data set [1]; in the data set on HepG2 cells) was “limited or no cytotoxicity” in each case.

For the molecule `O=C1C=CC(=O)N1c1cccc([N+](=O)[O-])c1` [Compound 1, 1-(3-nitrophenyl)-1H-pyrrole-2,5-dione], the IC50 amounted to 280 ± 70 nM on recombinant human hepsin (setting [3]) and 3.88 ± 0.85 µM on trypsin. In addition, at thrombin (at 1 μM), the “activation of thrombin activity” value is given as “approximately 3 fold”. The “cellular toxicity (cell viability)” value is reported as “substantial toxicity” in the data set on LNCaP cells, “without affecting” in data set [1] and “without affecting” in the data set with HepG2 cells.

For the molecule `O=c1oc(-c2cccc(F)c2)nc2ccc(Cc3ccc4nc(-c5cccc(F)c5)oc(=O)c4c3)cc12` [Compound 7, 6,6′-methylenebis[2-(3-fluorophenyl)-4H-3,1-benzooxazin-4-one]], the IC50 at recombinant human hepsin (setting [3]) was 2310 ± 530 nM; on thrombin, above 20 µM; at trypsin, 13.1 ± 3 µM. Also, the “cellular toxicity (cell viability)” value (in the data set on LNCaP cells; in data set [1]; in the data set with HepG2 cells) was “limited or no cytotoxicity” in each case.

For the molecule `O=C(Nc1ccc(Cl)c(Cl)c1)Nc1nnc(-c2ccc(Br)cc2)s1` [Compound 8, N-[5-(4-bromophenyl)-1,3,4-thiadiazol-2-yl]-N′-(3,4-dichlorophenyl)urea], the values for the IC50 at recombinant human hepsin (setting [3]), against thrombin and at trypsin were 720 ± 200 nM, above 20 µM and 1.71 ± 0.21 µM, respectively. The “cellular toxicity (cell viability)” value (in the data set with LNCaP cells; in data set [1]; in the data set on HepG2 cells) was “limited or no cytotoxicity” throughout.
